# Like-named read-outs stand apart in the source and are kept apart here.
# What was measured:
# S. aureus NMI 664 K MRSA = assay: Antibacterial activity against clinical MRSA: MIC/MBC; type: cell-based; conditions: Staphylococcus aureus
# Protocol: Direct antimicrobial activity was determined against the following standard strains: (1) Gram-positive cocci: methicillin-sensitive Staphylococcus aureus ATCC 6538P (MSSA), methicillin-resistant S. aureus subsp. aureus ATCC 43300 (MRSA), S. epidermidis ATCC 12228, Enterococcus faecium ATCC 6057, E. faecalis ATCC 29212, Bacillus subtilis ATCC 6633; (2) Gram-negative bacteria from Enterobacteriales order: Klebsiella pneumoniae ATCC 13883, Escherichia coli ATCC 25922, Enterobacter cloacae DSM 6234, Proteus mirabilis ATCC 12453, Serratia marcescens ATCC 13880; (3) Gram-negative non-fermentative rods: Acinetobacter baumannii ATCC 19606, Pseudomonas aeruginosa ATCC 27853, Stenotrophomonas maltophilia ATCC 12714, S. maltophilia ATCC 13637, Burkholderia cepacia ATCC 25416, Bordetella bronchiseptica ATCC 4617; (4) yeasts: Candida albicans ATCC 90028, C. krusei ATCC 6258, C. parapsilosis ATCC 22019, C. tropicalis (Castellani) Berkhout ATCC 750, C. tropicalis IBA 171, C. guilliermondii IBA 155, and Saccharomyces cerevisiae ATCC 9763. Moreover, 5 clinical strains of methicillin-resistant S. aureus were also included: NMI 664 K, NMI 1576 K, NMI 1712 K, NMI 1991 K, and NMI 2541 K. All strains were stored at −80 °C. Prior to testing, each bacterial strain was subcultured twice on tryptic soy agar TSA (bioMerieux) medium and yeast strains on Sabouraud dextrose agar (bioMerieux) for 24–48 h at 30 °C to ensure viability. The antimicrobial activity was evaluated as previously described[26] by the disc-diffusion method and the MIC determination assays according to the EUCAST (ref. [71] and [72]) and CLSI (ref. [53] and [73]) recommendations. Assessment of bactericidal (MBC) and fungicidal (MFC) activities was performed according to the CLSI recommendations.[54,74] The following reference agents were used: fluconazole (in the case of fungi), linezolid (for Gram-positive bacteria), and nitrofurantoin (for Gram-negative rods). The new benzosiloxaboroles were dissolved in DMSO (Sigma).
# [1] = test system: B. bronchiseptica ATCC 4617; assay: Antibacterial activity: MIC/MBC, disc-diffusion; type: cell-based, Bordetella bronchiseptica; conditions: Bordetella bronchiseptica, ATCC4617
# Method in brief: (§1)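 Read-outs are disc-diffusion zones, broth-microdilution MICs and bactericidal concentrations (MBC), following EUCAST and CLSI guidance. The efflux contribution was probed by rerunning MICs with 20 μg mL^−1 PAβN in MgSO4-supplemented (1 mM) Mueller–Hinton II broth, a ≥4-fold decrease being significant.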
# E. coli ATCC 25922 = assay: Antibacterial activity: MIC/MBC, MIC with PAβN, disc-diffusion; type: cell-based, Escherichia coli; conditions: for MIC: Escherichia coli, ATCC25922; for -fold reduction of MIC in the presence of PAβN: PAβN 20 μg mL^−1, MHB + 1 mM MgSO4
# Method in brief: as §1
# C. albicans ATCC 90028 = assay: Antifungal activity: MIC/MFC, disc-diffusion; type: cell-based, Candida albicans; conditions: for MIC: Candida albicans, ATCC90028
# Method in brief: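 CLSI recommendations governed the MBC/MFC determination. MICs and inhibition zones were obtained by EUCAST/CLSI dilution and disc-diffusion methods, with compounds delivered in DMSO.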
# [2] = test system: Human normal lung fibroblasts MRC-5; assay: MTT-based viability (cytotoxicity) assay; conditions: for IC50: Homo sapiens, MRC5, 48 h
# Method in brief: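 MRC-5 pd30 human lung fibroblasts in supplemented MEME at 37 °C, 5% CO2; viability by MTT, absorbance 570 nm, triplicate, as percent of control cells. Selectivity index taken as IC50/MIC against S. aureus MRSA strains.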
# [3] = NMI 664 K MRSA, read-out: MBC (first MBC where Eagle effect)
# [4] = B. bronchiseptica ATCC 4617, read-out: MIC
# [5] = E. coli ATCC 25922, read-out: MIC
# [6] = NMI 664 K MRSA, read-out: second MBC (Eagle effect)
Compound,"viability of MRC-5 ([2]; 6.25 µg·mL−1, 48 h)","viability of MRC-5 ([2]; 12.5 µg·mL−1, 48 h)","viability of MRC-5 ([2]; 25 µg·mL−1, 48 h)","viability of MRC-5 ([2]; 50 µg·mL−1, 48 h)","viability of MRC-5 ([2]; 100 µg·mL−1, 48 h)","viability of MRC-5 ([2]; 200 µg·mL−1, 48 h)","viability of MRC-5 ([2]; 400 µg·mL−1, 48 h)",IC50 [2] [µg/mL],MBC (S. aureus NMI 664 K MRSA; [3]) [µg/mL],"MIC (S. aureus NMI 664 K MRSA; NMI 664 K MRSA, read-out: MIC) [µg/mL]","MIC [1, 4] [µg/mL]",MIC (E. coli ATCC 25922; [5]) [µg/mL],MIC (C. albicans ATCC 90028; read-out: MIC) [µg/mL],MBC (S. aureus NMI 664 K MRSA; [6]) [µg/mL],-fold reduction of MIC in the presence of PAβN (E. coli ATCC 25922; E. coli ATCC 25922),further results
"CCOP(=O)(OCC)Sc1c(F)cc2c(c1F)[Si](C)(C)OB2O [Compound 24, S-(5,7-Difluoro-3-hydroxy-1,1-dimethyl-1,3-dihydrobenzo[c][1,2,5]oxasilaborol-6-yl) O,O-diethyl phosphorothioate]",95.5±1.4 % of control ± SD,83.9±0.1 % of control ± SD,81.6±2.6 % of control ± SD,78.2±3.0 % of control ± SD,73.0±4.0 % of control ± SD,76.5±3.8 % of control ± SD,60.5±3.8 % of control ± SD,> 400,–,–,–,–,–,–,–,"MIC (S. aureus NMI 664 K MRSA; MRSA): 6.25 µg/mL; MBC (S. aureus NMI 664 K MRSA; MRSA, read-out: MBC (first MBC where Eagle effect)): 25 µg/mL; MBC (S. aureus NMI 664 K MRSA; MRSA, read-out: second MBC (Eagle effect)): > 400 µg/mL; MIC [1]: > 400 µg/mL; MIC (E. coli ATCC 25922): > 400 µg/mL; MIC (C. albicans ATCC 90028): > 400 µg/mL"
"C[Si]1(C)OB(O)c2ccc(SC(=O)c3ccc(C(F)(F)F)cc3)c(F)c21 [Compound 25, S-(7-Fluoro-3-hydroxy-1,1-dimethyl-1,3-dihydrobenzo[c][1,2,5]oxasilaborol-6-yl) 4-(trifluoromethyl)benzothioate]",–,–,–,–,–,–,–,112,25,12.5,> 50,> 50,50,–,–,–
"C[Si]1(C)OB(O)c2ccc(SCC(=O)c3ccccc3)c(F)c21 [Compound 23, 2-((7-Fluoro-3-hydroxy-1,1-dimethyl-1,3-dihydrobenzo[c][1,2,5]oxasilaborol-6-yl)thio)-1-phenylethan-1-one]",99.3±8.4 % of control ± SD,94.3±0.1 % of control ± SD,83.3±4.4 % of control ± SD,85.9±5.1 % of control ± SD,64.2±3.6 % of control ± SD,32.0±0.3 % of control ± SD,1.0±1.3 % of control ± SD,126,3.12,3.12,> 400,> 400,> 400,200,–,–
"C[Si]1(C)OB(O)c2cc(F)c(SCCC#N)c(F)c21 [Compound 6, 3-((5,7-Difluoro-3-hydroxy-1,1-dimethyl-1,3-dihydrobenzo[c][1,2,5]oxasilaborol-6-yl)thio)propanenitrile]",104.0±5.7 % of control ± SD,112.1±1.8 % of control ± SD,104.7±6.7 % of control ± SD,108.3±3.0 % of control ± SD,90.4±0.5 % of control ± SD,43.6±5.1 % of control ± SD,29.5±5.8 % of control ± SD,140,25,12.5,> 400,> 400,> 400,> 400,2 -fold,–
"C[Si]1(C)OB(O)c2cc(F)c(SCCS(=O)(=O)c3ccccc3)c(F)c21 [Compound 20, 5,7-Difluoro-1,1-dimethyl-6-((2-(phenylsulfonyl)ethyl)thio)benzo[c][1,2,5]oxasilaborol-3(1H)-ol]",101.2±1.7 % of control ± SD,95.3±1.0 % of control ± SD,93.5±2.1 % of control ± SD,84.0±1.5 % of control ± SD,68.5±4.9 % of control ± SD,38.8±4.8 % of control ± SD,3.4±0.9 % of control ± SD,122,12.5,6.25,> 400,> 400,> 400,400,32 -fold,–
"C[Si]1(C)OB(O)c2cc(F)c(SC3CC(=O)N(c4ccc(Br)c(C(F)(F)F)c4)C3=O)c(F)c21 (stereo not shown) [Compound 16, 1-(4-Bromo-3-(trifluoromethyl)phenyl)-3-((5,7-difluoro-3-hydroxy-1,1-dimethyl-1,3-dihydrobenzo[c][1,2,5]oxasilaborol-6-yl)thio)pyrrolidine-2,5-dione]",97.0±0.2 % of control ± SD,84.8±2.7 % of control ± SD,78.5±1.6 % of control ± SD,62.7±2.5 % of control ± SD,46.0±1.4 % of control ± SD,0.4±0.2 % of control ± SD,0.1±0.0 % of control ± SD,76.2,–,–,200,> 200,50,–,–,"diameter of inhibition zone (C. albicans ATCC 90028; C. albicans ATCC 90028, (-) = zone not observed, paper discs 9 mm): 25 mm"
"C[Si]1(C)OB(O)c2cc(F)c(S(N)(=O)=O)c(F)c21 [Compound 27, 5,7-Difluoro-3-hydroxy-1,1-dimethyl-1,3-dihydrobenzo[c][1,2,5]oxasilaborole-6-sulfonamide]",74.1±3.1 % of control ± SD,74.1±1.4 % of control ± SD,79.3±9.5 % of control ± SD,79.7±7.5 % of control ± SD,74.3±7.9 % of control ± SD,68.5±3.4 % of control ± SD,66.2±2.4 % of control ± SD,> 400,–,–,> 400,> 400,> 400,–,2 -fold,–

# — article PMC11110727, “Exploiting thiol-functionalized benzosiloxaboroles for achieving diverse substitution patterns – synthesis, characterization and biological evaluation of promising antibacterial agents” (RSC Medicinal Chemistry, 2024)
